From ChEMBL document CHEMBL3227937, “2',3'-Bis(2-chloroethyl)aminophosphoryl-3'-amino-3'-deoxyadenosine: a cyclic nucleotide with antitumor activity” (1979) come the findings set out here.

The subject of experiment [1] is KB. Briefly: Cytotoxicity against human KB cells. It counts as functional.
Experiment [2] is described as follows: Anticancer activity against mouse LE1210 cells allografted in mouse at 0.625 mg/kg, ip relative to control. In kind it is functional. The following applies: route intraperitoneal.

Values after ≈ are worked out from the molar mass of the structure shown.

The molecule `Nc1ncnc2c1ncn2[C@@H]1O[C@H](CO)[C@H]2NP(=O)(N(CCCl)CCCl)O[C@H]21` (single isomer, unassigned; isomer 2) registered an ED50 in experiment [1] of 0.66 µg/mL (≈ 1.46 µM).

Regarding `Nc1ncnc2c1ncn2[C@@H]1O[C@H](CO)[C@H]2NP(=O)(N(CCCl)CCCl)O[C@H]21` (single isomer, unassigned; isomer 1), the T/C in experiment [2] was 101%. In addition, in experiment [1] (Homo sapiens, KB, read-out: ED50 (the source's name)), the EC50 worked out at 1.1 µg/mL (≈ 2.43 µM).

Molecule `CN(C)c1ncnc2c1ncn2[C@@H]1O[C@H](CO)[C@H]2NP(=O)(N(CCCl)CCCl)O[C@H]21` (mixture of isomers) had a T/C in experiment [2] of 101%.

One may read the T/C as the result in the treated group divided by that in the control group, in per cent.
